Data reported in US8889876B2, “Histone deacetylase inhibitors and uses thereof” (Jiangsu Hengyi Pharmaceutical Co., Ltd., priority 2008, dated 2014).
Values after ≈ are worked out from the molar mass of the structure shown.

Tests used:
[1] = tested on: Hep3B2.1-7 human liver cancer cells; assay: CCK-8 proliferation inhibition, Hep3B2.1-7; type: cell-based; conditions: CCK-8 method; for inhibition at 10 µM / inhibition at 100 µM: Homo sapiens, Hep3B
Procedure, shortened: (§1)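 Inhibition rates were obtained by CCK-8 assay after treating cells with each compound at 100 μM or 10 μM.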

[2] = tested on: K562: human chronic myeloid leukemia cell strain; assay: MTT cytotoxicity to tumor cell strains, K562; type: cell-based; conditions: for IC50: Homo sapiens, read-out: Cell activity (IC50, μg/ml) K562
Method: (§2) The cytotoxicity of samples to tumor cell strains is determined through MTT.

[3] = tested on: Jurkat E6-1 human T-cell lymphoma; assay: CCK-8 proliferation inhibition, Jurkat E6-1; type: cell-based; conditions: for inhibition at 10 µM / inhibition at 100 µM: Homo sapiens; for inhibition at 10 µM: Jurkat E6.1, 10 μM; for inhibition at 100 µM: Jurkat E6.1, 100 μM
Procedure, shortened: as §1

[4] = tested on: Colo320 human rectal cancer cells; assay: CCK-8 proliferation inhibition, Colo320; type: cell-based; conditions: CCK-8 method; for inhibition at 10 µM / inhibition at 100 µM: Homo sapiens, COLO 320
Procedure, shortened: as §1

[5] = tested on: PANC-1 human pancreatic cancer cells; assay: CCK-8 proliferation inhibition, PANC-1; type: cell-based; conditions: for inhibition at 10 µM / inhibition at 100 µM: Homo sapiens; for inhibition at 10 µM: PANC-1, 10 μM; for inhibition at 100 µM: PANC-1, 100 μM
Procedure, shortened: as §1

[6] = tested on: PC-3 human prostate cancer; assay: CCK-8 proliferation inhibition, PC-3; type: cell-based; conditions: CCK-8 method; for inhibition at 10 µM / inhibition at 100 µM: Homo sapiens
Procedure, shortened: as §1

[7] = tested on: Hut78 T-cell Leukemia cell; assay: CCK-8 proliferation inhibition, Hut78; type: cell-based; conditions: for inhibition at 10 µM / inhibition at 100 µM: Homo sapiens, read-out: Hut-78 (inhibition %); for inhibition at 10 µM: HuT78, 10 μM; for inhibition at 100 µM: HuT78, 100 μM
Procedure, shortened: as §1

[8] = tested on: MDA-MB-435s human breast cancer cells; assay: CCK-8 proliferation inhibition, MDA-MB-435s; type: cell-based; conditions: CCK-8 method; for inhibition at 10 µM / inhibition at 100 µM: Homo sapiens, MDA-MB-435S
Procedure, shortened: as §1

histone deacetylase [9] = assay: in vitro inhibition of histone deacetylase by HDAC inhibitor screening kit (Biovision K340-100); type: biochemical
Method: An assay for determining the in vitro inhibition activity of the compound on histone deacetylase is conducted according to the specification of HDAC inhibitor screeing kid (Biovision Company/Catalog #K340-100). […]

[10] = tested on: A549 human lung cancer cells; assay: CCK-8 proliferation inhibition, A549; type: cell-based; conditions: CCK-8 method; for inhibition at 10 µM / inhibition at 100 µM: Homo sapiens, A549
Procedure, shortened: as §1

[11] = tested on: K562 human chronic myeloid leukemia cells; assay: CCK-8 proliferation inhibition, K562; type: cell-based; conditions: for inhibition at 10 µM / inhibition at 100 µM: Homo sapiens; for inhibition at 10 µM: K562, 10 μM; for inhibition at 100 µM: K562, 100 μM
Procedure, shortened: as §1

histone deacetylase [12] = assay: in vitro inhibition activity on histone deacetylase (rat liver homogenate, MAL fluorescent substrate); type: biochemical, rats; conditions: n = 4, 37° C., 16 hours
Method: A 96-well plate (black) for determining […] is made by Costar Company of U.S. The histone deacetylase is obtained by homogenization of liver of rats. The histone deacetylase reacts with small molecular fluorescent substrate MAL such that the substrate MAL is deacetylated to become ML.
The compound to be detected is dissolved with 200 μL of DMSO. The stock solution of the compound to be detected is diluted with PBS to a concentration of the working solution. The histone deacetylase, the MAL fluorescent substrate and the compound to be detected are mixed in a water bath at 37° C. and reacted 16 hours. The final concentration of the compound to be detected is: MS275 and its similar compound: 10, 100 μmol/.
The reaction solution is extracted with ethyl acetate. The extract is pumped in vacuum and thereto added 110 μL of methanol (40%). Taking 50 μL/well to a 96-well plate and making a fluorescent detection at 325/390 nm.
The negative control wherein histone deacetylase is not added to the reaction is 100% inhibition. The control that only contains histone deacetylase without any inhibitor is the background (0% inhibition). The inhibition rate of the sample to be detected=(the detected fluorescent value−the background)/(the fluorescent value of the negative control−background)×100%
The inhibition rate and the standard deviation in the results are the average inhibition percentage and the standard deviation of each parallel well in each dosage group.

[13] = tested on: Hut 78 (T-cell Leukemia cell); assay: MTT cytotoxicity to tumor cell strains, Hut 78; type: cell-based; conditions: Hut 78, MTT; for IC50: Homo sapiens, HuT78, read-out: Cell activity (IC50, μg/ml) Hut 78
Method: as §2

[14] = tested on: A549 (human lung adenocarcinoma cells); assay: MTT cytotoxicity to tumor cell strains, A549; type: cell-based; conditions: for IC50: Homo sapiens, read-out: Cell activity (IC50, μg/ml) A549
Method: as §2

## Nc1ccccc1NC(=O)c1ccc(CNC(=O)OCc2cccnc2)cc1 [MS-275, reference compound]
[1]; compound concentration 10 μM
  Hep3B (inhibition %): 10.8%
[1]; compound concentration 100 μM
  Hep3B (inhibition %): 52.1%
[2]
  Cell activity (IC50, μg/ml) K562: 3.20 µg/mL
[3]; 10 μM
  Jurkat E6-1 (inhibition %): 89.5%
[3]; 100 μM
  Jurkat E6-1 (inhibition %): 96.1%
[4]; compound concentration 10 μM
  Colo320 (inhibition %): 18.0%
[4]; compound concentration 100 μM
  Colo320 (inhibition %): 61.6%
[5]; 10 μM
  PANC-1 (inhibition %): 12.4%
[5]; 100 μM
  PANC-1 (inhibition %): 31.6%
[6]; compound concentration 10 μM
  PC-3 (inhibition %): 12.5%
[6]; compound concentration 100 μM
  PC-3 (inhibition %): 71.5%
[7]; 10 μM
  Hut-78 (inhibition %): 61.8%
[7]; 100 μM
  Hut-78 (inhibition %): 85.3%
[8]; compound concentration 10 μM
  435s(inhibition %): 2.7%
[8]; compound concentration 100 μM
  435s(inhibition %): 59.3%
Histone deacetylase [9]; 3.91 μM
  Inhibition rate(%): 32.5%
Histone deacetylase [9]; 62.5 μM
  Inhibition rate(%): 60.5%
Histone deacetylase [9]; 2 mM
  Inhibition rate(%): 82.2%
[10]; compound concentration 10 μM
  A549 (inhibition %): 58.9%
[10]; compound concentration 100 μM
  A549 (inhibition %): 92.3%
[11]; 10 μM
  K562 (inhibition %): 66.2%
[11]; 100 μM
  K562 (inhibition %): 74.6%
Histone deacetylase [12]; dosage 10 μmol/L
  inhibition rate % average number: 45.588%
Histone deacetylase [12]; dosage 100 μmol/L
  inhibition rate % average number: 66.300%
[13]
  Cell activity (IC50, μg/ml) Hut 78: 0.15 µg/mL
[14]
  Cell activity (IC50, μg/ml) A549: 24.42 µg/mL

## Nc1ccccc1CNC(=O)c1ccc(CNC(=O)OCc2cccnc2)cc1 [V-1, N-(2-aminobenzyl)-4-[(3-pyridylmethoxyacyl)aminomethyl]benzamide]
[2]
  IC50: > 100 µg/mL
Histone deacetylase [12]; dosage 10 μmol/L
  inhibition rate % average number: 0.479%
Histone deacetylase [12]; dosage 100 μmol/L
  inhibition rate % average number: 0.293%
[13]
  IC50: 12.5 µg/mL (≈ 32 µM)
[14]
  IC50: > 100 µg/mL

## O=C(NCc1ccc(C(=O)Nc2ccccn2)cc1)OCc1cccnc1 [V-2, N-(2-pyridyl)-4-[(3-pyridylmethoxyacyl)aminomethyl]benzamide]
[2]
  IC50: > 100 µg/mL
Histone deacetylase [12]; dosage 10 μmol/L
  inhibition rate % average number: −0.124%
Histone deacetylase [12]; dosage 100 μmol/L
  inhibition rate % average number: 0.080%
[13]
  IC50: 76.2 µg/mL (≈ 210 µM)
[14]
  IC50: > 100 µg/mL

## O=C(NCc1ccc(C(=O)Nc2cccnc2)cc1)OCc1cccnc1 [V-3, N-(3-pyridyl)-4-[(3-pyridylmethoxyacyl)aminomethyl]benzamide]
[2]
  IC50: > 100 µg/mL
Histone deacetylase [12]; dosage 10 μmol/L
  inhibition rate % average number: 0.170%
Histone deacetylase [12]; dosage 100 μmol/L
  inhibition rate % average number: 0.481%
[13]
  IC50: 38.8 µg/mL (≈ 107 µM)
[14]
  IC50: > 100 µg/mL

## COc1cc(/C=C/C(=O)NCc2ccc(C(=O)Nc3cccnc3N)cc2)cc(OC)c1OC [V-34, N-(2-amino-3-pyridyl)-4-[(3,4,5-trimethoxycinnamoyl)aminomethyl]benzamide]
[1]; compound concentration 10 μM
  inhibition at 10 µM: 1%
[1]; compound concentration 100 μM
  inhibition at 100 µM: 28.1%
[2]
  IC50: > 100 µg/mL
[3]
  inhibition at 10 µM: 4.7%
  inhibition at 100 µM: 52.7%
[4]; compound concentration 10 μM
  inhibition at 10 µM: 7.3%
[4]; compound concentration 100 μM
  inhibition at 100 µM: 5.9%
[5]
  inhibition at 10 µM: 9.2%
  inhibition at 100 µM: 4%
[6]; compound concentration 10 μM
  inhibition at 10 µM: 7%
[6]; compound concentration 100 μM
  inhibition at 100 µM: 40.2%
[7]
  inhibition at 10 µM: 9.9%
  inhibition at 100 µM: 53.1%
[8]; compound concentration 10 μM
  inhibition at 10 µM: 21.5%
[8]; compound concentration 100 μM
  inhibition at 100 µM: 42.9%
[10]; compound concentration 10 μM
  inhibition at 10 µM: -7.4%
[10]; compound concentration 100 μM
  inhibition at 100 µM: 6.2%
[11]
  inhibition at 10 µM: 12.8%
  inhibition at 100 µM: 61.2%
[13]
  IC50: 68.5 µg/mL (≈ 148 µM)
[14]
  IC50: > 100 µg/mL

## Nc1ncccc1NC(=O)c1ccc(CNC(=O)/C=C/c2ccc([N+](=O)[O-])cc2)cc1 [V-36, N-(2-amino-3-pyridyl)-4-[(4-nitrocinnamoyl)aminomethyl]benzamide]
[1]; compound concentration 10 μM
  inhibition at 10 µM: 11.3%
[1]; compound concentration 100 μM
  inhibition at 100 µM: 40.6%
[2]
  IC50: > 100 µg/mL
[3]
  inhibition at 10 µM: 12.5%
  inhibition at 100 µM: 83.3%
[4]; compound concentration 10 μM
  inhibition at 10 µM: 7.9%
[4]; compound concentration 100 μM
  inhibition at 100 µM: 14.1%
[5]
  inhibition at 10 µM: 20.8%
  inhibition at 100 µM: 39.5%
[6]; compound concentration 10 μM
  inhibition at 10 µM: -9.4%
[6]; compound concentration 100 μM
  inhibition at 100 µM: 22.1%
[7]
  inhibition at 10 µM: 8.1%
  inhibition at 100 µM: 60%
[8]; compound concentration 10 μM
  inhibition at 10 µM: 30.8%
[8]; compound concentration 100 μM
  inhibition at 100 µM: 61.2%
[10]; compound concentration 10 μM
  inhibition at 10 µM: 2.4%
[10]; compound concentration 100 μM
  inhibition at 100 µM: 12%
[11]
  inhibition at 10 µM: 34.1%
  inhibition at 100 µM: 64.8%
[13]
  IC50: 17.1 µg/mL (≈ 40.9 µM)
[14]
  IC50: > 100 µg/mL

## N-(2-amino-4-pyridyl)-4-[(2-naphthylmethoxyacyl)aminomethyl]benzamide [V-24]
[1]; compound concentration 10 μM
  Hep3B (inhibition %): 24.8%
[1]; compound concentration 100 μM
  Hep3B (inhibition %): 13.5%
[2]
  Cell activity (IC50, μg/ml) K562: 6.23 µg/mL
[3]; 10 μM
  Jurkat E6-1 (inhibition %): 37.2%
[3]; 100 μM
  Jurkat E6-1 (inhibition %): 22.1%
[4]; compound concentration 10 μM
  Colo320 (inhibition %): −2.3%
[4]; compound concentration 100 μM
  Colo320 (inhibition %): −17.1%
[5]; 10 μM
  PANC-1 (inhibition %): 8.0%
[5]; 100 μM
  PANC-1 (inhibition %): 7.8%
[6]; compound concentration 10 μM
  PC-3 (inhibition %): 5.1%
[6]; compound concentration 100 μM
  PC-3 (inhibition %): 3.4%
[7]; 10 μM
  Hut-78 (inhibition %): 26.2%
[7]; 100 μM
  Hut-78 (inhibition %): 20.7%
[8]; compound concentration 10 μM
  435s(inhibition %): 49.8%
[8]; compound concentration 100 μM
  435s(inhibition %): 50.4%
[10]; compound concentration 10 μM
  A549 (inhibition %): 48.7%
[10]; compound concentration 100 μM
  A549 (inhibition %): 65.7%
[11]; 10 μM
  K562 (inhibition %): 42.8%
[11]; 100 μM
  K562 (inhibition %): 29.7%
Histone deacetylase [12]; dosage 10 μmol/L
  inhibition rate % average number: 46.547%
Histone deacetylase [12]; dosage 100 μmol/L
  inhibition rate % average number: 70.300%
[13]
  Cell activity (IC50, μg/ml) Hut 78: 0.30 µg/mL
[14]
  Cell activity (IC50, μg/ml) A549: 7.11 µg/mL
